Broadly, the EC50 is the concentration that produces a half-maximal response. Higher therefore signals weaker potency.

The first experiment deals with AMPK. Description: AMPK activation, enzyme-linked immunosorbent assay. The experiment is classed as biochemical. To be noted: ELISA, Table 6. As for the experimental part: Compounds 1-13 were assayed for their ability to activate AMPK using an enzyme-linked immunosorbent assay.
Compounds 14-16 were assayed for their ability to activate AMPK using an enzyme-linked immunosorbent assay.
Compounds 17-18 were assayed for their ability to activate AMPK using an enzyme-linked immunosorbent assay.
Compounds 19-22 were assayed for their ability to activate AMPK using an enzyme-linked immunosorbent assay.
Compounds 23-26 were assayed for their ability to activate AMPK using an enzyme-linked immunosorbent assay.
Compounds 27-33 were assayed for their ability to activate AMPK using an enzyme-linked immunosorbent assay.
Compounds 34-42 were assayed for their ability to activate AMPK using an enzyme-linked immunosorbent assay.
On the technique in general: ELISA stands for enzyme-linked immunosorbent assay.
Take `N#Cc1ccc(CN2CCC(NC(=O)c3cnc(OC4CCN(c5ccc(C(F)(F)F)cc5)CC4)s3)CC2)cc1` [Compound 23, N-(1-(4-cyanobenzyl)piperidin-4-yl)-2-(1-(4-(trifluoromethyl)phenyl)piperidin-4-yloxy)thiazole-5-carboxamide]: the EC50 was under 100 nM. Compound `N#Cc1ccc(CN2CCC(NC(=O)c3cnc(OC4CCN(c5ccc(C#N)cc5)CC4)s3)CC2)cc1` [Compound 24, N-(1-(4-Cyanobenzyl)piperidin-4-yl)-2-(1-(4-cyanophenyl)piperidin-4-yloxy)thiazole-5-carboxamide] returned an EC50 of under 100 nM. The same measure, in the same setting: under `N#Cc1ccc(CN2CCC(NC(=O)c3cnc(OC4CCN(Cc5ccc(C(F)(F)F)cc5)CC4)s3)CC2)cc1` [Compound 25, N-(1-(4-Cyanobenzyl)piperidin-4-yl)-2-(1-(4-(trifluoromethyl)benzyl)piperidin-4-yloxy)thiazole-5-carboxamide] stands under 100 nM; under `CC(C)(C)OC(=O)N1CCC(Oc2ncc(C(=O)NC3CCN(Cc4ccc(C#N)cc4)CC3)s2)CC1` [Compound 26, tert-Butyl 4-(5-(1-(4-cyanobenzyl)piperidin-4-ylcarbamoyl)thiazol-2-yloxy)piperidine-1-carboxylate], 1000 to 10000 nM.

Still in this experiment, the particulars now being: ELISA, Table 7.
The compound `N#Cc1ccc(CN2CCC(NC(=O)c3ccc(C(=O)N4CCN(Cc5ccc(Cl)cc5)CC4)cc3)CC2)cc1` [Compound 28, 4-(4-(4-Chlorobenzyl)piperazine-1-carbonyl)-N-(1-(4-cyanobenzyl)piperidin-4-yl)benzamide] came in with an EC50 of under 100 nM. On the same count and under the same terms, under `N#Cc1ccc(CN2CCC(NC(=O)c3ccc(C(=O)N4CCN(c5ccc(Cl)cc5)CC4)cc3)CC2)cc1` [Compound 29, 4-(4-(4-Chlorophenyl)piperazine-1-carbonyl)-N-(1-(4-cyanobenzyl)piperidin-4-yl)benzamide] stands 10000 to 100000 nM; under `N#Cc1ccc(CN2CCC(NC(=O)c3ccc(C(=O)N4CCN(c5ccc(C(F)(F)F)cn5)CC4)cc3)CC2)cc1` [Compound 30, N-(1-(4-Cyanobenzyl)piperidin-4-yl)-4-(4-(5-(trifluoromethyl)pyridin-2-yl)piperazine-1-carbonyl)benzamide], under 100 nM; under `N#Cc1ccc(CN2CCC(NC(=O)c3ccc(C(=O)NC4CCN(Cc5ccc(C(F)(F)F)cc5)CC4)cc3)CC2)cc1` [Compound 31, N^1-(1-(4-Cyanobenzyl)piperidin-4-yl)-N^4-(1-(4-(trifluoromethyl)benzyl)piperidin-4-yl)terephthalamide], under 100 nM. In turn, `N#Cc1ccc(CN2CCC(NC(=O)c3ccc(C(=O)NC4CCN(c5ccccc5)CC4)cc3)CC2)cc1` [Compound 32, N^1-(1-(4-Cyanobenzyl)piperidin-4-yl)-N^4-(1-phenylpiperidin-4-yl)terephthalamide] yielded an EC50 of 10000 to 100000 nM. Still for that read-out and setting: as for `N#Cc1ccc(CN2CCC(NC(=O)c3ccc(C(=O)NC4CCN(Cc5ccccc5)CC4)cc3)CC2)cc1` [Compound 33, N^1-(1-Benzylpiperidin-4-yl)-N^4-(1-(4-cyanobenzyl)piperidin-4-yl)terephthalamide], the figure is 10000 to 100000 nM.

The same experiment, now with this note: ELISA, Table 8.
In the case of `N#Cc1ccc(CN2CCC(NC(=O)c3ccc4c(c3)CN(Cc3ccc(C#N)cc3)CC4)CC2)cc1` [Compound 37, 2-(4-cyanobenzyl)-N-(1-(4-cyanobenzyl)piperidin-4-yl)-1,2,3,4-tetrahydroisoquinoline-7-carboxamide], the EC50 is under 100 nM. Same read-out and setting: as for `N#Cc1ccc(CN2CCc3ccc(C(=O)NC4CCN(Cc5cccnc5)CC4)cc3C2)cc1` [Compound 38, 2-(4-Cyanobenzyl)-N-(1-(pyridin-3-ylmethyl)piperidin-4-yl)-1,2,3,4-tetrahydroisoquinoline-7-carboxamide], the figure is under 100 nM.

In the case of `N#Cc1ccc(CN2CCc3ccc(C(=O)NC4CCN(Cc5ccc(C(F)(F)F)cc5)CC4)cc3C2)cc1` [Compound 39, 2-(4-Cyanobenzyl)-N-(1-(4-(trifluoromethyl)benzyl)piperidin-4-yl)-1,2,3,4-tetrahydroisoquinoline-7-carboxamide], the EC50 was 1000 to 10000 nM. `N#Cc1ccc(CN2CCC(NC(=O)c3ccc4c(c3)CN(Cc3ccc(F)cc3)CC4)CC2)cc1` [Compound 40, N-(1-(4-cyanobenzyl)piperidin-4-yl)-2-(4-fluorobenzyl)-1,2,3,4-tetrahydroisoquinoline-7-carboxamide] returned a half-maximal effective concentration (EC50) of under 100 nM. `O=C(NC1CCN(Cc2cccnc2)CC1)c1ccc2c(c1)CN(Cc1ccc(F)cc1)CC2` [Compound 41, 2-(4-Fluorobenzyl)-N-(1-(pyridine-3-ylmethyl)piperidin-4-yl)-1,2,3,4-tetrahydroisoquinoline-7-carboxamide] displayed a 50% effective concentration (EC50) of 1000 to 10000 nM. Still for that read-out and setting: as for `O=C(NC1CCN(Cc2ccc(C(F)(F)F)cc2)CC1)c1ccc2c(c1)CN(Cc1ccc(F)cc1)CC2` [Compound 42, 2-(4-Fluorobenzyl)-N-(1-(4-(trifluoromethyl)benzyl)piperidin-4-yl)-1,2,3,4-tetrahydroisoquinoline-7-carboxamide], the figure is 100 to 1000 nM.

For the origin of these results see US9255085B2, “Carboxamide compounds and methods for using the same” (Rigel Pharmaceuticals, Inc., priority 2008, dated 2016).
